These results are taken from patent publication US11046699B2, “Pyrazolo-pyrimidin-amino-cycloalkyl compounds and their therapeutic uses” (RAPT THERAPEUTICS, INC., priority 2018, dated 2021).

For this assay, the target named is GCN2 (Homo sapiens, UniProt Q9P2K8). Nature of the assay: GCN2 enzymatic endpoint assay: phosphorylation of GFP-eIF2α measured by TR-FRET (Lanthascreen). Type of assay: biochemical. Summed up:
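2 μM ATP, 80 nM GFP-eIF2α, RT, 90 min; EDTA stop. Tb-anti-phospho antibody TR-FRET read, 520/495 nm ratio.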
On the technique in general: Time-resolved FRET reads energy transfer from a long-lived donor to a nearby acceptor.

Where [1] appears, read: tested as described in Example 77, compound and/or hydrochloride, dihydrochloride or trifluoroacetic acid salt, read-out: IC 50 Activity.
The mark [2] stands for this setting: GCN2 biochemical IC50, 4 nM GCN2, 2 μM ATP, 80 nM GFP-eIF2α, 90 min RT, read-out: GCN2 activity.

Molecules are shown by their SMILES. Where a name gives a salt, the structure may show the parent alone. Read-outs that look alike come from different tables or passages of the source.

GCN2, sequence (Q9P2K8 whole entry): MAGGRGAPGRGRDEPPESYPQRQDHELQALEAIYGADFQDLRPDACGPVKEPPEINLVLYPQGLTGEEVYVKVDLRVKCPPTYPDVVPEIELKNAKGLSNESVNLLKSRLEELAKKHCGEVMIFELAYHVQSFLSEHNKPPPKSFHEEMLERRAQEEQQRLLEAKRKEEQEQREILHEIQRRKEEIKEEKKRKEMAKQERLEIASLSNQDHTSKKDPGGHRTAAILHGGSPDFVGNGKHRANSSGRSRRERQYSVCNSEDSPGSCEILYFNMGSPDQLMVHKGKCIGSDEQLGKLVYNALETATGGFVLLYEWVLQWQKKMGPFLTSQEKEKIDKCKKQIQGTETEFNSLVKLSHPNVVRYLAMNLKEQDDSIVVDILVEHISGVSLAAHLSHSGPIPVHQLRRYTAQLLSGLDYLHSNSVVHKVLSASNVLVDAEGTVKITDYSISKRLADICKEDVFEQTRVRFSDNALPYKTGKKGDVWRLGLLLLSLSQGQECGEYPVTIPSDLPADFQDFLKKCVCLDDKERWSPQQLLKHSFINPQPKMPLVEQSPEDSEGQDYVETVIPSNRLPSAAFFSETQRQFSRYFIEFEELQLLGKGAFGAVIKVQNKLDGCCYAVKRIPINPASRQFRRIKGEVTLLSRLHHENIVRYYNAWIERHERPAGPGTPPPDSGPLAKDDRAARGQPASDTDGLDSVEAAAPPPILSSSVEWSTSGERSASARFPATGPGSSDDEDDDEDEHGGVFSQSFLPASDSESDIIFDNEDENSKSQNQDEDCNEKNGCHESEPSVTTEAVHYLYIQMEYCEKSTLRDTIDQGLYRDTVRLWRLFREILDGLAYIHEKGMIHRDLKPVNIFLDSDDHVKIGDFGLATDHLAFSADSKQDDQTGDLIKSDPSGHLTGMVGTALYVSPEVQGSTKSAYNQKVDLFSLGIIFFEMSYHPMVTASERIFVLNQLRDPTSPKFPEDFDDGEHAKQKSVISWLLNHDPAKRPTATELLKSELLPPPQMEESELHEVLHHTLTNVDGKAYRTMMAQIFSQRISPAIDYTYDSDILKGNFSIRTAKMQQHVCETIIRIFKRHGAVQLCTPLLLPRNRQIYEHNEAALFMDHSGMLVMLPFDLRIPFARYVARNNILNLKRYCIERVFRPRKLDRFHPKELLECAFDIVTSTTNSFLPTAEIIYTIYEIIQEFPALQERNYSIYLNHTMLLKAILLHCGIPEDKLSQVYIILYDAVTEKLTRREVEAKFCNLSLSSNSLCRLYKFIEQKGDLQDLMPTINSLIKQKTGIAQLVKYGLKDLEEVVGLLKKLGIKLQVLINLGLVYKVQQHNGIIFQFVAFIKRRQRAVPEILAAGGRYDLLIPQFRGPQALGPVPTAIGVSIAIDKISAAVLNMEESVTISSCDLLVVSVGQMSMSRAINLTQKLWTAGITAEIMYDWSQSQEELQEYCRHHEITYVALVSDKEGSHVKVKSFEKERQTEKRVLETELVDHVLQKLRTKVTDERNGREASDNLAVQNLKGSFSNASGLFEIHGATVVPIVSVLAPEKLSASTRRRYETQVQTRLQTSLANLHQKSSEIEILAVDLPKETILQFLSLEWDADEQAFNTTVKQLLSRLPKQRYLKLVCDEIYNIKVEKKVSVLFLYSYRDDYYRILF

Regarding `CNC(=O)[C@]1(C)CC[C@@H](Nc2ncc3c(Br)nn(-c4ccc(-c5nnc(C(C)(C)N)o5)c(C#N)c4)c3n2)C1` [(1R,3R)-3-[[1-[4-[5-(1-amino-1-methyl-ethyl)-1,3,4-oxadiazol-2-yl]-3-cyano-phenyl]-3-bromo-pyrazolo[3,4-d]pyrimidin-6-yl]amino]-N,1-dimethyl-cyclopentanecarboxamide], the IC50 under setting [1] is under 0.025 µM. On to `CNC(=O)[C@]1(C)CC[C@@H](Nc2ncc3c(Br)nn(-c4ccc5c(c4)C(=O)C(=O)N5)c3n2)C1` [(1R,3R)-3-[[3-bromo-1-(2,3-dioxo-indolin-5-yl)pyrazolo[3,4-d]pyrimidin-6-yl]amino]-N,1-dimethyl-cyclo-pentanecarboxamide], for which the IC50 under setting [1] was in the range of 0.025 to 0.2 µM. On the same count and under the same terms, the same measure for `CNC(=O)[C@]1(C)CC[C@@H](Nc2ncc3c(Br)nn(-c4ccc5ncn(CCO)c(=O)c5c4)c3n2)C1`: 0.025 to 0.2 µM. Same read-out and setting: the same measure for `CNC(=O)[C@]1(C)CC[C@@H](Nc2ncc3c(Br)nn(-c4ccc5ncc(CNCCC#N)cc5c4)c3n2)C1` [(1R,3R)-3-[[3-bromo-1-[3-[(2-cyanoethyl-amino)methyl]-6-quinolyl]pyrazolo[3,4-d]pyrimidin-6-yl]amino]-N,1-dimethyl-cyclo-pentanecarboxamide]: 0.025 to 0.2 µM; for `Cc1nnc(-c2ccc(-n3nc(Br)c4cnc(N[C@@H]5CC[C@@H](NC(=O)C6CNC6)C5)nc43)cc2)s1`: 0.025 to 0.2 µM; for `CC1(C(=O)N2CCN3CCOC[C@@H]3C2)CC[C@@H](Nc2ncc3c(Br)nn(-c4cc(F)c5ncccc5c4)c3n2)C1` (stereo partly drawn) [[(9aS)-3,4,6,7,9,9a-hexahydro-1H-pyrazino [2,1-c][1,4]oxazin-8-yl]-[(3R)-3-[[3-bromo-1-(8-fluoro-6-quinolyl)pyrazolo[3,4-d]pyrimidin-6-yl]amino]-1-methyl-cyclopentyl]methanone]: 0.025 to 0.2 µM. As for `CNC(=O)[C@]1(C)CC[C@@H](Nc2ncc3c(Br)nn(-c4ccc5c(c4)CCN(C(=O)C4CNC4)C5)c3n2)C1` [(1R,3R)-3-[[1-[2-(azetidine-3-carbonyl)-3,4-dihydro-1H-isoquinolin-6-yl]-3-bromo-pyrazolo[3,4-d]pyrimidin-6-yl]amino]-N,1-dimethyl-cyclopentanecarboxamide], the IC50 under setting [1] was in the range of 0.025 to 0.2 µM. Same read-out and setting: the same measure for `CNC(=O)[C@]1(F)CC[C@@H](Nc2ncc3c(Br)nn(-c4cc(F)c5ncccc5c4)c3n2)C1` [(1S,3R)-3-[[3-bromo-1-(8-fluoro-6-quinolyl)pyrazolo[3,4-d]pyrimidin-6-yl]amino]-1-fluoro-N-methyl-cyclopentanecarboxamide]: 0.025 to 0.2 µM; for `CNC(=O)[C@]1(C)CC[C@@H](Nc2ncc3c(Br)nn(-c4ccc(C#N)c(CCN)c4)c3n2)C1` [(1R,3R)-3-[[1-[3-(2-aminoethyl)-4-cyano-phenyl]-3-bromo-pyrazolo[3,4-d]pyrimidin-6-yl]amino]-N,1-dimethyl-cyclopentanecarboxamide]: 0.025 to 0.2 µM. As for `CNC(=O)[C@]1(C)CC[C@@H](Nc2ncc3c(Br)nn(-c4ccc5ncc(C(C)(C)O)cc5c4)c3n2)C1` [Example 21, (1R,3R)-3-((3-bromo-1-(3-(2-hydroxypropan-2-yl)quinolin-6-yl)-1H-pyrazolo[3,4-d]pyrimidin-6-yl)amino)-N,1-dimethylcyclopentane-1-carboxamide], the IC50 under setting [2] fell in the range of 0.025 to 0.2 µM.

On to `C[C@H](N)c1cc(Cl)cc(-n2nc(Br)c3cnc(N[C@@H]4CC[C@@](C)(C#N)C4)nc32)c1`, for which, under setting [1], the IC50 is 0.025 to 0.2 µM. The same measure, in the same setting: the figure for `C[C@]1(C(=O)NCCO)CC[C@@H](Nc2ncc3c(Br)nn(-c4cc(F)c5ncccc5c4)c3n2)C1` [(1S,3R)-3-[[3-bromo-1-(8-fluoro-6-quinolyl)pyrazolo[3,4-d]pyrimidin-6-yl]amino]-N-(2-hydroxyethyl)-1-methyl-cyclopentane-carboxamide] is 0.025 to 0.2 µM. On to `CNC(=O)[C@]1(C)CC[C@@H](Nc2ncc3c(Br)nn(-c4cc([C@@H](C)N)c5nccnc5c4)c3n2)C1` [Example 34, (1R,3R)-3-((1-(8-((R)-1-aminoethyl)quinoxalin-6-yl)-3-bromo-1H-pyrazolo[3,4-d]pyrimidin-6-yl)amino)-N,1-dimethylcyclopentane-1-carboxamide; 2,2,2-trifluoroacetic acid], for which the IC50 under setting [2] is under 0.025 µM.

For `CNC(=O)C1(C)CC[C@@H](Nc2ncc3c(Br)nn(-c4cc(Cl)cc(C(N)=O)c4)c3n2)C1` (stereo partly drawn) [3-[3-bromo-6-[[(1R)-3-methyl-3-(methylcarbamoyl)cyclopentyl]amino]pyrazolo[3,4-d]pyrimidin-1-yl]-5-chloro-benzamide], the IC50 under setting [1] was under 0.025 µM. For `CS(=O)(=O)CCNC(=O)[C@@H]1CC[C@@H](Nc2ncc3c(Br)nn(-c4ccc5ncccc5c4)c3n2)C1` [(1R,3R)-3-((3-bromo-1-(quinolin-6-yl)-1H-pyrazolo[3,4-d]pyrimidin-6-yl)amino)-N-(2-(methylsulfonyl)ethyl)cyclopentane-1-carboxamide], the IC50 under setting [1] fell in the range of 0.2 to 0.5 µM. As for `C[C@@]1(C(=O)O)CC[C@@H](Nc2ncc3c(Br)nn(-c4cc(CCN)c5ncccc5c4)c3n2)C1` [(1R,3R)-3-[[1-[8-(2-aminoethyl)-6-quinolyl]-3-bromo-pyrazolo[3,4-d]pyrimidin-6-yl]amino]-1-methyl-cyclopentanecarboxylic acid], the IC50 under setting [1] was under 0.025 µM. Still for that read-out and setting: the same measure for `CNC(=O)[C@]1(C)CC[C@@H](Nc2ncc3c(Br)nn(-c4ccc(-c5nnc(C)o5)nc4)c3n2)C1` [(1R,3R)-3-[[3-bromo-1-[6-(5-methyl-1,3,4-oxadiazol-2-yl)-3-pyridyl]pyrazolo [3,4-d]pyrimidin-6-yl]amino]-N,1-dimethyl-cyclopentanecarboxamide]: 0.025 to 0.2 µM; for `CNC(=O)[C@]1(C)CC[C@@H](Nc2ncc3c(Br)nn(-c4cc(CN5C(=O)CNC5=O)c5ncccc5c4)c3n2)C1` [(1R,3R)-3-[[3-bromo-1-[8-[(2,5-dioxo-imidazolidin-1-yl)methyl]-6-quinolyl]pyrazolo[3,4-d]pyrimidin-6-yl]amino]-N,1-dimethyl-cyclopentanecarboxamide]: 0.025 to 0.2 µM. Same read-out and setting: the figure for `COCCNC(=O)[C@@H]1CCC(Nc2ncc3c(Br)nn(-c4ccc(-c5nnc(C)s5)cc4)c3n2)C1` (stereo partly drawn) [(1R)-3-[[3-bromo-1-[4-(5-methyl-1,3,4-thiadiazol-2-yl)phenyl]pyrazolo[3,4-d]pyrimidin-6-yl]amino]-N-(2-methoxy-ethyl)cyclopentanecarboxamide] is 0.025 to 0.2 µM; for `CC1(CNC(=O)[C@@H]2CC[C@@H](Nc3ncc4c(Br)nn(-c5ccc6ncccc6c5)c4n3)C2)COC1` [(1R,3R)-3-((3-bromo-1-(quinolin-6-yl)-1H-pyrazolo[3,4-d]pyrimidin-6-yl)amino)-N-((3-methyloxetan-3-yl)methyl)cyclopentane-1-carboxamide] it is 0.2 to 0.5 µM. Consider `CNC(=O)[C@]1(CC#N)CC[C@@H](Nc2ncc3c(Br)nn(-c4cc(F)c5ncccc5c4)c3n2)C1` [Example 40, (1R,3R)-3-((3-bromo-1-(8-fluoroquinolin-6-yl)-1H-pyrazolo[3,4-d]pyrimidin-6-yl)amino)-1-(cyanomethyl)-N-methylcyclopentane-1-carboxamide hydrochloride], for which, under setting [2], the IC50 is under 0.025 µM.

As for `CNC(=O)[C@]1(C)CC[C@@H](Nc2ncc3c(Br)nn(-c4ccc5c(c4)S(=O)(=O)CC(=O)N5C)c3n2)C1`, the IC50 under setting [1] was 0.025 to 0.2 µM. Take `CNC(=O)[C@]1(C)CC[C@@H](Nc2ncc3c(Br)nn(-c4cc(O)c5c(c4)OCC(=O)N5C)c3n2)C1` [(1R,3R)-3-[[3-bromo-1-(5-hydroxy-4-methyl-3-oxo-1,4-benzoxazin-7-yl)pyrazolo[3,4-d]pyrimidin-6-yl]amino]-N,1-dimethyl-cyclo-pentanecarboxamide]: the IC50 under setting [1] was in the range of 0.025 to 0.2 µM. On to `CNC(=O)[C@]1(C(C)C)CC[C@@H](Nc2ncc3c(Br)nn(-c4ccc(-c5nnc(C)s5)c(CCC#N)c4)c3n2)C1` [(1R,3R)-3-[[3-bromo-1-[3-(2-cyanoethyl)-4-(5-methyl-1,3,4-thiadiazol-2-yl)phenyl]pyrazolo[3,4-d]pyrimidin-6-yl]amino]-1-isopropyl-N-methyl-cyclopentane-carboxamide], for which the IC50 under setting [1] fell in the range of 0.025 to 0.2 µM.

In the case of `CP(C)(=O)[C@@H]1CC[C@@H](Nc2ncc3c(Br)nn(-c4cc(CCN)c5nccnc5c4)c3n2)C1` [1-[8-(2-aminoethyl)quinoxalin-6-yl]-3-bromo-N-[(1R,3R)-3-dimethylphosphorylcyclopentyl] pyrazolo[3,4-d]pyrimidin-6-amine], the IC50 under setting [1] lay within 0.025 to 0.2 µM. As to `CNC(=O)[C@]1(CCCOC)CC[C@@H](Nc2ncc3c(Br)nn(-c4cc(F)c5ncccc5c4)c3n2)C1` [(1S,3R)-3-[[3-bromo-1-(8-fluoro-6-quinolyl)pyrazolo[3,4-d]pyrimidin-6-yl]amino]-1-(3-methoxypropyl)-N-methyl-cyclopentane-carboxamide], the IC50 under setting [1] was under 0.025 µM. For `O=C([C@@H]1CC[C@@H](Nc2ncc3c(Br)nn(-c4ccc5ncccc5c4)c3n2)C1)N1CC[S+]([O-])CC1` [((1R,3R)-3-((3-bromo-1-(quinolin-6-yl)-1H-pyrazolo[3,4-d]pyrimidin-6-yl)amino)cyclo-pentyl)(1-oxidothiomorpholino)methanone], under setting [1], the IC50 lay in the range of 0.025 to 0.2 µM. Same read-out and setting: the same measure for `CNS(=O)(=O)C1CC[C@@H](Nc2ncc3c(Br)nn(-c4cc(Cl)cc([C@H](C)N)c4)c3n2)C1` (stereo partly drawn): 0.025 to 0.2 µM; for `CNC(=O)[C@@]1(C)CC[C@@H](Nc2ncc3c(Br)nn(-c4cc(N5CCNCC5)c5ncccc5c4)c3n2)C1` [(1S,3R)-3-[[3-bromo-1-(8-piperazin-1-yl-6-quinolyl)pyrazolo[3,4-d]pyrimidin-6-yl]amino]-N,1-dimethyl-cyclopentane-carboxamide]: 0.025 to 0.2 µM; for `CNC(=O)[C@@H]1CC[C@@H](Nc2ncc3c(Br)nn(-c4cc(C#N)c5ncccc5c4)c3n2)C1` [(1R,3R)-3-((3-bromo-1-(8-cyanoquinolin-6-yl)-1H-pyrazolo[3,4-d]pyrimidin-6-yl)amino)-N-methylcyclopentane-1-carboxamide]: under 0.025 µM.
